Results as given in patent publication US20230295212A1 (ROME Therapeutics, Inc., priority 2022, published 2023).

Legend:
[1] = biological target: T1, LINE1 reverse transcriptase (Homo sapiens, UniProt O00370); assay: Stable artificial-intron Cis LINE1 reporter assay (HeLa Tet-On 3G, Firefly luciferase); format: cell-based; details: HeLa L1 artificial-intron reporter cells, doxycycline 500 ng/mL, 72 h, class symbols
T1 construct: expressed in transfected cells; host or cells: HeLa Tet-On 3G (Takara, cat no 631183)
Summary of the method: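 HeLa Tet-On 3G clone stably carrying a bi-directional doxycycline-inducible artificial-intron LINE1 reporter, plated at 8,000 cells/well onto serially diluted compound. Expression induced with 500 ng/mL doxycycline (final); Firefly luciferase luminescence (Dual-Glo) read 72 h after plating as LINE1 activity.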

[2] = system: phosphorylated TANK-binding kinase 1 (pTBK1); assay: UVB-induced pTBK1 in HaCaT cells (ELISA); format: cell-based
Experimental: pTBK1 is an important signaling molecule in regulating inflammatory responses. HaCaT cells were plated in 6-well plates at a density of ˜100 k/well in HaCaT media (DMEM, optimized 1×(Addex Bio)^+1% pen strep (Gibco)^+5% heat inactivated fetal bovine serum (Gibco)). The cells were then cultured at 37° C. overnight. The next day, the cells were treated with the test compounds. Each test compound was diluted and added to media aliquots to provide desired concentrations. To add the test compound+media mixture, an equivalent amount of media from each well was aspirated and then replenished with the media dosed with the test compound. The cells were then cultured for an additional 72 hours with compound treatment prior to UVB exposure.
The media was then aspirated from the wells, with the remaining cells at least 80% confluent in each well. One mL of PBS was then added to each well, and the plate was then placed under a UVB lamp. A UVB sensor was positioned near the plate to register the plate's exposure. The cells were exposed to the UVB light until they reached 0.1 mJ/cm2. […]
A RIPA lysis buffer (#BP-115, Boston BioProducts) was added to a Halt protease and […] inhibitor cocktail (#78440, ThermoFisher), and the mixture was cooled on ice. […] The protein concentration of the cell lysate was measured using Pierce™ Rapid Gold BCA Protein Assay Kit #AF3225 (ThermoFisher). […]

[3] = system: THP1-Dual KO-TREX1 xenograft tumors; assay: Altering IFN production in THP1 TREX1 KO xenografts (compounds 2, 25, 40); format: in vivo, mouse; details: CB-17 SCID mice, decitabine 5 mg/kg IP, test compound 10, 30 or 100 mg/kg PO once daily 4 days, tumors 24 h post-last dose
Experimental: Exemplary compounds 2, 25 and 40 were tested for their ability to alter IFN levels in THP1-Dual™ KO-TREX1 xenografts in mice. Assay procedures are described below.
CB-17 SCID female mice were inoculated subcutaneously with 10 million THP1-Dual™ KO-TREX1 cells in 200 μl PBS with Matrigel (1:1) and grouped when tumor volume reached 350-400 mm^3. Mice bearing THP1-Dual™ KO-TREX1 xenograft tumors were then separated into 5 groups. Three groups were administered: (1) decitabine (DAC) at 5 mg/kg IP, once daily, for 4 days, and (2) test compound at 10, 30, or 100 mg/kg, PO, once daily, for 4 days. One group was administered decitabine (DAC) at 5 mg/kg IP, once daily, for 4 days, and the test compound vehicle control. The final group was administered the vehicle control from both the test compound and the vehicle control from decitabine. Decitabine is formulated in sterile PBS, pH 7.4, and Compound 2, 25, and 40 were formulated in 20% PEG400 in PBS.
Tumors were harvested 24 h post-last dose administered on day 4, ground in PBS at 50 Hz for 5 min, and kept on ice for 30 min while being vortexed every 5 min. […] Equal amounts of proteins were added to 96-well black plates, and luciferase signal was measured using the QUANTI-Luc™ detection medium according to manufacturer's instructions. Luminescence was measured using the EnVision® 2105 Multimode Plate Reader. […]

human PBMC = assay: Decitabine-stimulated human PBMC assay (IFN-β, cell viability); format: cell-based; details: 5 days
Experimental: EasySep buffer (32 mL, […] Technologies, cat. #20144) was used to dilute 8 mL of LRSC buffy coat (from fresh Leukopak) with gentle mixing. The diluted buffy coat (20 mL) was transferred into each of two SepMate 50 tubes, and the tubes were filled with 15 mL of Lyphoprep ([…], cat. #07851) density gradient. The SepMate tubes were then centrifuged at 1200G for 10 minutes at room temperature with the brake on. The top layer of supernatant was collected in SepMate tubes by quickly pouring it into a new 50 mL conical tube. The PBMCs were washed with EasySep buffer ×2 by centrifuging at 300G for 5 minutes. The cells were resuspended in 30 mL of EasySep and centrifuged at 100G for 5 minutes with the brake off, and the platelets were removed. The cells were then resuspended in 6 mL of 1×RBC lysis buffer (Invitrogen) and incubated at 37° C. for 5 minutes. 25 mL of EasySep buffer was then mixed into the tube and centrifuged at 300G for 5 minutes. The cells were resuspended in 10 mL of EasySep buffer and the cells were then counted with Cellometer (AO/PI). The PBMCs were resuspended in RPMI1640 (ThermoFisher)^+10% FBS (HyClone)^+μ/s at 3×10^6/mL. The PBMCs (100 μL, 300 k PBMCs) were then seeded in a 96-well flat bottom microplate (Corning) that had been precoated with 100 μL of anti-CD3 antibody (10 μg/mL in PBS, Biolegend) or PBS at 4° C., one day before the assay was commenced.
To each well the following solutions were added 1) 100 μL of cells (final cell number per well is 3×10^5 cell/well); 2) 25 μL of anti-CD28 antibody at 6×(5 μg/mL final concentration, Biolegend); 3) 25 μL of decitabine at 6×(10 μM final concentration); and 4) Compound in DMSO was dispensed directly into each well with a d300e digital dispenser (Tecan). The final concentration of DMSO for each well was normalized to 0.3%. The plate was incubated at 37° C. without any agitation for 5 days. Samples were collected 120 hours after incubation to determine IFN-0 and IL-2 levels using a U-PLEX Human IFN-β Assay Sector (5PL) (MSD, cat. #K151VIK-2).
After 5 days, the plate was spun down at 100×G for 5 minutes. Supernatants (100 μL) were collected for interferon β(IFN-β) analysis using the MSD assay noted above, and any residual supernatant was stored at −80° C.

[4] = system: THP1-Dual KO-TREX1 xenograft tumors; assay: Altering IFN production in THP1-Dual KO-TREX1 mouse xenografts (Compound 67); format: in vivo; details: CB-17 SCID mice, decitabine 5 mg/kg SC, compound 0.3-100 mg/kg PO once daily 5 days, tumors 4 h post-last dose
Experimental: Exemplary Compound 67 was tested for its ability to alter IFN levels in THP1-Dual™ KO-TREX1 xenografts in mice. Assay procedures are described below.
CB-17 SCID female mice were inoculated subcutaneously with 10 million THP1-Dual™ KO-TREX1 cells in 200 μl PBS with Matrigel (1:1) and grouped at N=5 per treatment per sampling timepoint when tumor volume reached an average of 340 mm^3. Six groups were co-administered: (1) decitabine (DAC) at 5 mg/kg SC, once daily, for 5 days, and (2) test compound 67 at one of six doses (0.3 mg/kg PO, 1 mg/kg PO, 3 mg/kg PO, 10 mg/kg PO, 30 mg/kg PO, 100 mg/kg PO) once daily, for 5 days. Two additional groups were administered (1) decitabine and test compound vehicle control SC+PO, once daily, for 5 days, and (2) decitabine at 5 mg/kg SC, once daily, for 5 days. […]
Tumors were harvested 4 h post-last dose administered on day 5, grinded in PBS at 50 Hz for 5 min, kept on ice for 30 min while being vortexed every 5 min. […] Equal amounts of proteins were added to 96-well black plates, and luciferase signal was measured using the QUANTI-Luc™ detection medium according to manufacturer's instructions. Luminescence was measured using the EnVision® 2105 Multimode Plate Reader.
Experimental results are depicted in FIG. 9. […] In FIG. 9, IFN signal was measured in tumors harvested from mice 4 hours after the final decitabine and test compound dosing on day 5.

T1 sequence (O00370 whole entry, looked up): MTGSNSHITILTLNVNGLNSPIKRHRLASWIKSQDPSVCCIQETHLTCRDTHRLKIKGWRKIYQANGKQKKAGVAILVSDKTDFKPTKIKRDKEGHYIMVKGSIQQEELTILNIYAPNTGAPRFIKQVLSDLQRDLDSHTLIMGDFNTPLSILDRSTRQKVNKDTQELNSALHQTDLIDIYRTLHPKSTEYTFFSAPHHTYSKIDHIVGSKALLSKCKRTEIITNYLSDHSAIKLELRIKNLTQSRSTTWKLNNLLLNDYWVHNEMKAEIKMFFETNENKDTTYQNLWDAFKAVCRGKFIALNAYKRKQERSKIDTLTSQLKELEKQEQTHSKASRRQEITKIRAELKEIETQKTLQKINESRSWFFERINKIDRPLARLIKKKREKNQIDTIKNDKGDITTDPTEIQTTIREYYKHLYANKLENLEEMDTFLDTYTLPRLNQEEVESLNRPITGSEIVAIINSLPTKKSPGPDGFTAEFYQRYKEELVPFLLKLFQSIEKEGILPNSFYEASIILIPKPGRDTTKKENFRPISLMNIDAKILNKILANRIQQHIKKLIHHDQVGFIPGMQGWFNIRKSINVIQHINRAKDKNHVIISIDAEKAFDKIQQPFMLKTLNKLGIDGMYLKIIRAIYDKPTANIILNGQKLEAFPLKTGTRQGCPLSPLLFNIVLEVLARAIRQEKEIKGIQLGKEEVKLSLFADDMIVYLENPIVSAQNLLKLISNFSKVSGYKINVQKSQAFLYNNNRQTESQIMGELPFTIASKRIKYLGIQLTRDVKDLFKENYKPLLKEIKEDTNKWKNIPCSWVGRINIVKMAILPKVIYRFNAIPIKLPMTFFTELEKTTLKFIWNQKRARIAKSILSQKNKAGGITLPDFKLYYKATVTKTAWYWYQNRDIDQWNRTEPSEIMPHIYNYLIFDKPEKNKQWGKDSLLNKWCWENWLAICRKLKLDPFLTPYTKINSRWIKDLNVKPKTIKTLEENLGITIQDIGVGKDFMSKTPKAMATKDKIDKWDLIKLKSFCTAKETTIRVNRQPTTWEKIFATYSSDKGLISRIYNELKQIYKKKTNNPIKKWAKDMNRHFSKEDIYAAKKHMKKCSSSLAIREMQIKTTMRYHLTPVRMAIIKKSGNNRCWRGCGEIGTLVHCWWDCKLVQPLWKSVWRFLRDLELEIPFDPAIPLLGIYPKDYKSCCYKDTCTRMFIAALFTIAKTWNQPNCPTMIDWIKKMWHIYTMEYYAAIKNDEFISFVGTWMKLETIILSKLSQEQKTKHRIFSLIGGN

IC50 [1] | Compound | cytotoxicity, concentration [2] | inhibition of DAC-induced IFN signal in THP1 tumors [3] | IFN-β level (human PBMC; anti-CD3/anti-CD28, decitabine 10 μM) | cell viability (human PBMC; decitabine 10 μM) | inhibition of DAC-induced IFN signal in THP1 tumors [4]
≤ 50 nM | Nc1nc(=O)n([C@H]2C[C@H](O)[C@](CO)(CCl)O2)cc1F [Compound 14, 4-amino-1-((2R,4S,5R)-5-(chloromethyl)-4-hydroxy-5-(hydroxymethyl)tetrahydrofuran-2-yl)-5-fluoropyrimidin-2(1H)-one] | ≥ 30 µM |  |  |  | 
≤ 50 nM | Nc1nc(=O)n([C@@H]2O[C@@](CO)(CCl)[C@@H](O)[C@@H]2F)cc1F [Compound 67, 4-amino-1-[(2R,3S,4R,5R)-5-(chloromethyl)-3-fluoro-4-hydroxy-5-(hydroxymethyl)oxolan-2-yl]-5-fluoropyrimidin-2-one] |  |  |  |  | dose-response inhibition of DAC-induced IFN signal

Compound | IC50 [1] | cytotoxicity, concentration [2] | inhibition of DAC-induced IFN signal in THP1 tumors [3] | IFN-β level (human PBMC; anti-CD3/anti-CD28, decitabine 10 μM) | cell viability (human PBMC; decitabine 10 μM) | inhibition of DAC-induced IFN signal in THP1 tumors [4]
Nc1ccn([C@@H]2O[C@@](CO)(CCl)[C@@H](O)[C@@H]2F)c(=O)n1 [Compound 40, 4-amino-1-((2R,3S,4R,5R)-5-(chloromethyl)-3-fluoro-4-hydroxy-5-(hydroxymethyl)tetrahydrofuran-2-yl)pyrimidin-2(1H)-one] | ≤ 50 nM |  | potent inhibition of DAC-induced IFN signal | inhibition of IFN-0 | some cell viability losses at higher concentrations | 
